The test system of the first experiment is IL-12 induced STAT4 phosphorlyation mediated by TYK2/JAK2. Briefly: IL-12 Induced pSTAT4 in Human PBMC. The settings on record: 1.7 ng/mL IL-12 for 30 minutes. It counts as cell-based. On the procedure: Human PBMC were isolated from buffy coat and are stored frozen for assays as needed. […] 15 μL of compound or DMSO was added to the well at the desired concentrations and incubated at 1 hr at 37° C. 15 μL of stimulus (final concentration of 1.7 ng/mL IL-12) was added for 30 minutes prior to pSTAT4 and total STAT4 analysis using cell lysates prepared and analyzed by MSD reagents as per manufacturer protocol. The final DMSO concentration of compound in the assay was 0.1%.
The IL-12 induced pSTAT4 assay evaluates the inhibition of IL-12 induced STAT4 phosphorlyation mediated by TYK2/JAK2 (heterpdimeric complex).
As a reminder, the IC50 is the midpoint of a concentration-inhibition curve. Regarding `CNc1cc(Nc2cccn([C@H]3C[C@@H](OC)C3)c2=O)nc2c(C(=O)N[C@H]3CC[C@@H]3OC)cnn12` [Compound I-253], the IC50 is < 0.1 µM.

For `CNc1cc(-c2cn([C@@H]3CN(C)C[C@H]3OC)c3ncccc23)nc2c(C(=O)NC3CC[C@@H]3OC)cnn12` (some centres unmarked) [Compound I-645], the IC50 is < 0.1 µM.

As for `CNc1cc(-c2cn([C@@H]3COC[C@H]3OC)c3ncccc23)nc2c(C(=O)NC3CC[C@H]3O)cnn12` (some centres unmarked) [Compound I-587], the IC50 is 0.5 to 1 µM.

Regarding `CNc1cc(Nc2cccn([C@H]3CCC[C@H]3O)c2=O)nc2c(C(=O)NC3CC[C@]3(C)OC)cnn12` (some centres unmarked) [Compound I-390], the IC50 is < 0.1 µM.

For the compound `CNc1cc(Nc2cccn([C@@H]3C[C@H]3F)c2=O)nc2c(C(=O)NC3CCC3(F)F)cnn12` (some centres unmarked) [Compound I-274], the IC50 is < 0.1 µM.

In the case of `CNc1cc(Nc2cccn([C@H]3C[C@H](OC)C3)c2=O)nc2c(C(=O)NC3CCC3(F)F)cnn12` (some centres unmarked) [Compound I-292], the IC50 is < 0.1 µM.

With `CNc1cc(-c2cn([C@@H]3COC[C@@H]3F)c3ncccc23)nc2c(C(=O)NC3CC[C@@H]3OC)cnn12` (some centres unmarked) [Compound I-621], the IC50 was < 0.1 µM.

Take `CNc1cc(-c2cn([C@H]3C[C@@H](O)C3)c3ncccc23)nc2c(C(=O)NC3CC[C@@H]3F)cnn12` (some centres unmarked) [Compound I-510]: the IC50 is < 0.1 µM.

As to `CNc1cc(-c2cnc3n([C@@H]4CN(C)C[C@H]4OC)cccc2-3)nc2c(C(=O)NC3CC[C@@H]3OC)cnn12` (some centres unmarked) [Compound I-943], the IC50 was < 0.1 µM.

As for `CNc1cc(Nc2cccn([C@@H]3CCCOC3)c2=O)nc2c(C(=O)NC3CC[C@@H]3F)cnn12` (some centres unmarked) [Compound I-194], the half-inhibitory concentration (IC50) was < 0.1 µM.

In turn, `CNc1cc(-c2cn([C@@H]3COC[C@H]3OC)c3ncccc23)nc2c(C(=O)N[C@@H]3CC[C@@H]3O)cnn12` [Compound I-583] registered an IC50 of 0.1 to 0.5 µM.

Turning to `CNc1cc(-c2cn(C3CN(C)C3)c3ncccc23)nc2c(C(=O)N[C@H]3CC[C@@H]3F)cnn12` [Compound I-514], the concentration for half-maximal inhibition (IC50) was < 0.1 µM.

As to `CNc1cc(Nc2cccn(C3CCN(CCF)CC3)c2=O)nc2c(C(=O)N[C@H]3CC[C@@H]3F)cnn12` [Compound I-237], the IC50 is < 0.1 µM.

As for `CNc1cc(-c2cn([C@@H]3CCOC[C@H]3F)c3ncccc23)nc2c(C(=O)NC3CC[C@@H]3OC)cnn12` (some centres unmarked) [Compound I-652], the 50% inhibitory concentration (IC50) is < 0.1 µM.

`CNc1cc(Nc2cccn([C@H]3CCCC[C@H]3O)c2=O)nc2c(C(=O)NC3CC[C@@H]3F)cnn12` (some centres unmarked) [Compound I-212] yielded an IC50 of 0.1 to 0.5 µM.

As to `CNc1cc(Nc2cccn([C@H]3C[C@@H]3F)c2=O)nc2c(C(=O)N[C@@H]3C[C@H]3OC)cnn12` [Compound I-133], the IC50 is < 0.1 µM.

For the compound `CNc1cc(-c2cnc3n([C@H]4COC[C@@H]4OC)cccc2-3)nc2c(C(=O)N[C@H]3CC[C@@H]3F)cnn12` [Compound I-833], the IC50 was < 0.1 µM.

Turning to `CNc1cc(-c2cnc3n([C@@H]4COC[C@H]4OC)cccc2-3)nc2c(C(=O)NC3CC[C@@H]3OC)cnn12` (some centres unmarked) [Compound I-883], the IC50 is < 0.1 µM.

Turning to `CNc1cc(Nc2cccn(-c3ccccn3)c2=O)nc2c(C(=O)N[C@H]3CC[C@@H]3F)cnn12` [Compound I-201], the IC50 was < 0.1 µM.

Take `CNc1cc(-c2cn([C@@H]3COC[C@@H]3F)c3ncccc23)nc2c(C(=O)N[C@H]3CC[C@@H]3OC)cnn12` [Compound I-622]: the half-inhibitory concentration (IC50) was < 0.1 µM.

As for `CNc1cc(-c2cn([C@@H]3CCC4(C3)OCCO4)c3ncccc23)nc2c(C(=O)NC3CC[C@@H]3OC)cnn12` (some centres unmarked) [Compound I-672], the IC50 was < 0.1 µM.

Turning to `CNc1cc(-c2cn([C@H]3COC[C@@H]3OC)c3ncccc23)nc2c(C(=O)N[C@H]3CC[C@@H]3F)cnn12` [Compound I-523], the IC50 was < 0.1 µM.

`CNc1cc(-c2cn(CCOC)c3ncccc23)nc2c(C(=O)NC3CC[C@@H]3OC)cnn12` (some centres unmarked) [Compound I-795]: the IC50 was < 0.1 µM.

On to `CNc1cc(-c2cn([C@H]3COC[C@@H]3OC)c3ncccc23)nc2c(C(=O)N[C@@H]3CC[C@@H]3F)cnn12` [Compound I-530], for which the 50% inhibitory concentration (IC50) is < 0.1 µM.

Turning to `CNc1cc(-c2cn([C@H]3CCOC3)c3ncccc23)nc2c(C(=O)N[C@H]3CC[C@@H]3OC)cnn12` [Compound I-613], the IC50 is < 0.1 µM.

In the case of `CNc1cc(-c2cnc3n([C@@H]4COC[C@H]4O)cccc2-3)nc2c(C(=O)N[C@H]3CC[C@@H]3F)cnn12` [Compound I-830], the IC50 was < 0.1 µM.

Take `CNc1cc(Nc2cccn(-c3ncccc3F)c2=O)nc2c(C(=O)NC3CC[C@H]3OC)cnn12` (some centres unmarked) [Compound I-265]: the half-inhibitory concentration (IC50) was < 0.1 µM.

Take `CNc1cc(Nc2cccn([C@@H]3C[C@H]3F)c2=O)nc2c(C(=O)N[C@@H]3CCC3(F)F)cnn12` [Compound I-276]: the IC50 is < 0.1 µM.

Regarding `O=C(N[C@H]1CCC1(F)F)c1cnn2c3c(c(-c4cn([C@H]5C[C@H](O)C5)c5ncccc45)nc12)OCCN3` [Compound I-776], the IC50 was < 0.1 µM.

Turning to `CNc1cc(Nc2cccn([C@H]3C[C@@H](OC)C3)c2=O)nc2c(C(=O)N[C@H]3CCC3(F)F)cnn12` [Compound I-296], the IC50 was < 0.1 µM.

Consider `CNc1cc(-c2cn([C@@H]3CN(C)C[C@H]3F)c3ncccc23)nc2c(C(=O)N[C@H]3CC[C@@H]3OC)cnn12` [Compound I-643], for which the IC50 was < 0.1 µM.

Consider `CNc1cc(Nc2cccn(C3CCOCC3)c2=O)nc2c(C(=O)N[C@H]3CC[C@]3(C)OC)cnn12` [Compound I-407], for which the half-maximal inhibitory concentration (IC50) is < 0.1 µM.

`CNc1cc(Nc2cccn([C@@H]3CCCC[C@@H]3O)c2=O)nc2c(C(=O)N[C@@H]3CC[C@H]3F)cnn12` [Compound I-211]: the IC50 is < 0.1 µM.

On to `CNc1cc(Nc2cccn([C@H]3CCCC[C@H]3O)c2=O)nc2c(C(=O)N[C@H]3CC[C@]3(C)OC)cnn12` [Compound I-424], for which the IC50 is < 0.1 µM.

With `CNc1cc(-c2cn([C@@H]3COC[C@@H]3F)c3ncccc23)nc2c(C(=O)N[C@H]3CC[C@H]3O)cnn12` [Compound I-571], the half-maximal inhibitory concentration (IC50) was < 0.1 µM.

On to `CNc1cc(Nc2cccn([C@@H]3CCCOC3)c2=O)nc2c(C(=O)N[C@@H]3CCC3(F)F)cnn12` [Compound I-317], for which the IC50 was < 0.1 µM.

As to `CNc1cc(Nc2cccn(C(C)C)c2=O)nc2c(C(=O)NC3CC[C@]3(C)O)cnn12` (some centres unmarked) [Compound I-339], the half-inhibitory concentration (IC50) was < 0.1 µM.

The compound `CNc1cc(-c2cn([C@@H]3CCOC[C@@H]3F)c3ncccc23)nc2c(C(=O)NC3CC[C@H]3O)cnn12` (some centres unmarked) [Compound I-588] gave an IC50 of 0.1 to 0.5 µM.

In the case of `CNc1cc(-c2cn([C@H]3COC[C@H]3F)c3ncccc23)nc2c(C(=O)N[C@H]3CC[C@H]3O)cnn12` [Compound I-574], the 50% inhibitory concentration (IC50) was < 0.1 µM.

Turning to `CNc1cc(-c2cn([C@H]3CCC[C@H]3F)c3ncccc23)nc2c(C(=O)N[C@H]3COC[C@H]3O)cnn12` [Compound I-722], the IC50 is < 0.1 µM.

For the compound `CNc1cc(-c2cnc3n([C@@H]4COC[C@H]4OC)cccc2-3)nc2c(C(=O)NC3CC[C@H]3F)cnn12` (some centres unmarked) [Compound I-841], the IC50 was < 0.1 µM.

In the case of `CNc1cc(-c2cn([C@@H]3COC[C@H]3O)c3ncccc23)nc2c(C(=O)N[C@H]3CCC3(F)F)cnn12` [Compound I-693], the IC50 was < 0.1 µM.

Turning to `CNc1cc(-c2cn([C@H]3CCOC[C@@H]3F)c3ncccc23)nc2c(C(=O)N[C@H]3CC[C@H]3O)cnn12` [Compound I-916], the IC50 was 0.1 to 0.5 µM.

As to `CNc1cc(-c2cnc3n([C@H]4COC[C@@H]4OC)cccc2-3)nc2c(C(=O)NC3CC[C@H]3F)cnn12` (some centres unmarked) [Compound I-838], the IC50 was < 0.1 µM.

For `CNc1cc(Nc2cccn(C(C)C)c2=O)nc2c(C(=O)NC3CC[C@@H]3F)cnn12` (mixture of isomers) [Compound I-145], the IC50 was < 0.1 µM.

For `CNc1cc(-c2cn([C@H]3CCOC[C@H]3OC)c3ncccc23)nc2c(C(=O)N[C@@H]3CCC3(F)F)cnn12` [Compound I-811], the IC50 was < 0.1 µM.

The compound `CNc1cc(-c2cn([C@H]3CC(=O)N(C)C3)c3ncccc23)nc2c(C(=O)NC3CC[C@@H]3OC)cnn12` (some centres unmarked) [Compound I-1017] showed an IC50 of 0.1 to 0.5 µM.

For `CNc1cc(Nc2cccn([C@H]3C[C@@H](OC)C3)c2=O)nc2c(C(=O)NC3CC[C@@H]3OC)cnn12` (some centres unmarked) [Compound I-780], the IC50 is < 0.1 µM.

As for `CNc1cc(Nc2cccn([C@H]3C[C@@H]3F)c2=O)nc2c(C(=O)NC3CCC3(F)F)cnn12` (some centres unmarked) [Compound I-277], the IC50 was < 0.1 µM.

For `CNc1cc(-c2cn([C@H]3CCOC[C@H]3F)c3ncccc23)nc2c(C(=O)NC3CC[C@H]3O)cnn12` (some centres unmarked) [Compound I-591], the IC50 lay within 0.5 to 1 µM.

Take `CNc1cc(-c2cn(CC(=O)N3CCC3)c3ncccc23)nc2c(C(=O)N[C@H]3CC[C@@H]3OC)cnn12` [Compound I-929]: the IC50 is 0.1 to 0.5 µM.

Regarding `CNc1cc(Nc2cccn([C@H]3[C@@H]4COC[C@@H]43)c2=O)nc2c(C(=O)N[C@@H]3CC[C@H]3F)cnn12` [Compound I-208], the concentration for half-maximal inhibition (IC50) was < 0.1 µM.

In the case of `CNc1cc(Nc2cccn([C@H]3CC[C@H]3O)c2=O)nc2c(C(=O)NC3CCC3(F)F)cnn12` (some centres unmarked) [Compound I-286], the IC50 is < 0.1 µM.

Compound `CNc1cc(Nc2cccn(C3CCOCC3)c2=O)nc2c(C(=O)N[C@@H]3CC[C@]3(O)C(F)(F)F)cnn12` [Compound I-976] yielded an IC50 of 0.1 to 0.5 µM.

Turning to `CNc1cc(Nc2cccn(-c3ccccn3)c2=O)nc2c(C(=O)NC3CC[C@@H]3F)cnn12` (some centres unmarked) [Compound I-200], the IC50 was < 0.1 µM.

Staying with this experiment, now noted: 0.5 h, 1.7 ng/mL IL-12 for 30 minutes.
For `CNc1cc(Nc2cccn([C@H]3C[C@H](F)C3)c2=O)nc2c(C(=O)NC3CC[C@H]3O)cnn12` (stereo partly drawn) [Compound I-11, 5-((1-((1r,3S)-3-Fluorocyclobutyl)-2-oxo-1,2-dihydropyridin-3-yl)amino)-N-(2-hydroxycyclobutyl)-7-(methylamino)pyrazolo[1,5-a]pyrimidine-3-carboxamide], the IC50 lay within 0.1 to 0.5 µM.
